In the supplement of paper PMC10307832:

Columns and labels:
Test in all cases: relative viability (nuclei count vs DMSO), 5 days (fraction); higher = more cells survive
[1] = compound: CC1=CC(=C(N1C2=CC=C(C=C2)Cl)C)C(=O)CN3CCCCC3 [IU1-47] + C[C@]1(O)C[C@@H](c2nc(-c3ccc4ccc(-c5ccccc5)nc4c3)c3c(N)nccn32)C1 [Linsitinib] (partner 1 µM)
Outline: (§1)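 Relative viability equals treated-well nuclei counts divided by vehicle-well nuclei counts. Counts came from 4× images of lung cancer cell lines grown in 1536-well plates for 5 days after pin-tool dosing on the day after seeding. Dosing used one drug alone or a fixed anchor-drug dose plus five library-drug doses (not always all listed) in √10 steps, and values are medians of duplicate plates.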

[2] = compound: CC1=CC(=C(N1C2=CC=C(C=C2)Cl)C)C(=O)CN3CCCCC3 [IU1-47] + Cc1nc(Nc2ncc(C(=O)Nc3c(C)cccc3Cl)s2)cc(N2CCN(CCO)CC2)n1 [Dasatinib] (partner 0.075 µM)
Outline: as §1

[3] = compound: CC1=CC(=C(N1C2=CC=C(C=C2)Cl)C)C(=O)CN3CCCCC3 [IU1-47] + Nc1nc2[nH]cc(CCc3ccc(C(=O)N[C@@H](CCC(=O)O)C(=O)O)cc3)c2c(=O)[nH]1 [Pemetrexed] (partner 0.2 µM)
Outline: as §1

[4] = compound: Cc1nc(C(=O)NCC(=O)O)c(O)c2ccc(Oc3ccccc3)cc12 [FG-4592] + CS(=O)(=O)CCNCc1ccc(-c2ccc3ncnc(Nc4ccc(OCc5cccc(F)c5)c(Cl)c4)c3c2)o1 [Lapatinib] (partner 2 µM)
Outline: as §1

| Cell Line | relative viability ([1]; first compound 0.08 µM) | relative viability ([1]; first compound 0.253 µM) | relative viability ([1]; first compound 0.8 µM) | relative viability ([1]; first compound 8 µM) | relative viability ([2]; first compound 0.08 µM) | relative viability ([2]; first compound 0.253 µM) | relative viability ([2]; first compound 0.8 µM) | relative viability ([2]; first compound 8 µM) | relative viability ([3]; first compound 0.08 µM) | relative viability ([3]; first compound 0.253 µM) | relative viability ([3]; first compound 0.8 µM) | relative viability ([3]; first compound 2.53 µM) | relative viability ([3]; first compound 8 µM) | relative viability ([4]; first compound 0.08 µM) | relative viability ([4]; first compound 0.253 µM) | relative viability ([4]; first compound 0.8 µM) | relative viability ([4]; first compound 2.53 µM) | relative viability ([4]; first compound 8 µM) | relative viability ([1]; first compound 2.53 µM) | relative viability ([2]; first compound 2.53 µM) |
| --- | --- | --- | --- | --- | --- | --- | --- | --- | --- | --- | --- | --- | --- | --- | --- | --- | --- | --- | --- | --- |
| NCI-H1734 | 0.883 | 0.954 | 0.876 | 0.781 | 0.493 | 0.531 | 0.461 | 0.406 | 0.454 | 0.415 | 0.446 | 0.443 | 0.463 | 0.947 | 0.886 | 0.915 | 0.973 | 1.02 | – | – |
| HOP-62 | 0.98 | 1.04 | 0.805 | 0.886 | 0.673 | 0.652 | 0.709 | 0.564 | 0.398 | 0.454 | 0.373 | 0.223 | 0.365 | 0.939 | 1.09 | 1.06 | 0.997 | 1.01 | 0.677 | 0.531 |
| LOU-NH91 | 1.07 | 1.06 | 0.939 | 0.868 | 0.597 | 0.581 | 0.605 | 0.534 | 0.389 | 0.386 | 0.526 | 0.38 | 0.35 | 0.72 | 0.759 | 0.618 | 0.734 | 0.631 | 0.907 | 0.608 |
| NCI-H2228 | 0.586 | 0.555 | 0.752 | 0.414 | 0.625 | 0.581 | 0.471 | 0.43 | 0.37 | 0.345 | 0.387 | 0.362 | 0.362 | 1.46 | 0.778 | 0.84 | 0.844 | 0.864 | 0.521 | 0.363 |
| PC-14 | 1.02 | 1.04 | 1.01 | 0.94 | 0.223 | 0.257 | 0.209 | 0.205 | 0.169 | 0.129 | 0.171 | 0.153 | 0.144 | 0.365 | 0.317 | 0.345 | 0.336 | 0.298 | 1.05 | 0.226 |
| NCI-H1437 | 1.11 | 1.02 | 0.959 | 0.704 | 0.369 | 0.348 | 0.384 | 0.365 | 0.336 | 0.336 | 0.314 | 0.308 | 0.311 | 0.883 | 0.817 | 0.8 | 0.677 | 0.499 | 1.01 | 0.35 |
| NCI-H460 | 1.21 | 1.1 | 0.986 | 0.559 | 0.68 | 0.508 | 0.654 | 0.501 | 0.0569 | 0.0572 | 0.0551 | 0.0515 | 0.0695 | 0.923 | 0.768 | 1.05 | 0.94 | 1.1 | 0.665 | 0.538 |
| NCI-H1666 | 0.759 | 0.775 | 0.773 | 0.757 | 0.79 | 0.806 | 0.761 | 0.676 | 0.894 | 0.839 | 0.888 | 0.873 | 0.841 | 0.617 | 0.519 | 0.485 | 0.519 | 0.456 | 0.708 | 0.793 |
| NCI-H1651 | 1.22 | 1.14 | 1 | 0.771 | 0.325 | 0.412 | 0.454 | 0.39 | 0.587 | 0.559 | 0.616 | 0.311 | 0.451 | 0.744 | 0.883 | 0.741 | 0.826 | 0.706 | – | 0.414 |
| NCI-H1755 | 1.03 | 1.03 | 1.06 | 0.962 | 0.455 | 0.528 | 0.426 | 0.36 | 0.434 | 0.439 | 0.825 | 0.454 | 0.445 | 0.935 | 1.01 | 0.945 | 1.02 | 0.984 | 1.05 | 0.409 |
| NCI-H661 | 0.622 | 0.644 | 0.596 | 0.474 | 0.884 | 0.879 | 0.83 | 0.695 | 0.925 | 0.961 | 0.977 | 0.925 | 0.947 | 0.446 | 0.462 | 0.578 | 0.473 | 0.403 | 0.419 | 0.77 |
| HARA | 1.19 | 1.13 | 1.08 | 0.678 | 0.273 | 0.184 | 0.325 | 0.276 | 0.258 | – | 0.199 | 0.26 | 0.22 | 0.677 | 0.719 | – | 0.728 | 0.667 | 0.931 | – |
| NCI-H596 | 1.17 | 1.11 | 1.02 | 0.934 | 0.574 | 0.617 | 0.606 | 0.554 | 0.491 | – | 0.494 | 0.508 | 0.446 | 1.04 | 1.01 | – | 1.02 | 0.847 | 0.984 | 0.595 |
| NCI-H1563 | 1.22 | 1.05 | 1.19 | 1.14 | 0.532 | 0.481 | 0.429 | 0.447 | 0.892 | 0.829 | 0.871 | 0.703 | 0.716 | 0.873 | 0.829 | 0.779 | 1.04 | 0.809 | 1.07 | 0.462 |
| NCI-H23 | 0.607 | 0.741 | 0.686 | 0.533 | 0.925 | 0.625 | 0.9 | 0.743 | 0.608 | – | 0.59 | 0.708 | 0.692 | 1.09 | 1.07 | 0.953 | 0.772 | 1.01 | 0.665 | 0.671 |
| LCLC-97TM1 | 0.177 | 0.228 | 0.168 | 0.175 | 0.98 | 0.971 | 1.03 | 0.776 | 0.173 | 0.15 | 0.154 | – | 0.172 | 1.13 | 1.12 | 0.716 | – | 0.791 | – | 0.841 |
| EPLC-272H | 1.24 | 1.27 | 1.4 | 1.16 | 0.371 | 0.459 | 0.322 | 0.35 | 0.332 | 0.422 | 0.316 | 0.327 | 0.313 | 1.12 | 0.795 | 0.586 | 0.962 | 0.916 | – | – |
| NCI-H1915 | 1.15 | 1.12 | 1.15 | 1.14 | 0.318 | 0.3 | 0.334 | 0.306 | 0.586 | 0.515 | 0.46 | 0.562 | 0.553 | 0.956 | 0.933 | 0.931 | 0.943 | 1.04 | – | – |
| NCI-H2405 | 1.02 | 1.1 | 1.01 | 0.932 | 0.21 | 0.234 | 0.208 | 0.208 | 1.05 | 1.1 | 1.05 | 1.02 | 1.09 | – | 0.733 | 0.87 | 0.918 | 0.702 | – | 0.206 |
| NCI-H322M | 1 | 0.88 | 1.03 | 0.887 | 0.251 | 0.251 | 0.257 | 0.238 | 0.662 | 0.648 | 0.829 | 0.582 | 0.607 | 0.451 | 0.621 | 0.631 | 0.646 | 0.633 | 0.927 | 0.265 |
| NCI-H1395 | 1.04 | 1.07 | 0.978 | 0.987 | 0.422 | 0.451 | 0.457 | 0.374 | 0.888 | 0.853 | 0.747 | 0.508 | 0.738 | 1.19 | 0.935 | – | 0.967 | 0.662 | – | 0.374 |
| NCI-H358 | 0.737 | 0.791 | 0.75 | 0.703 | 0.147 | 0.142 | 0.156 | 0.211 | 0.156 | 0.169 | 0.172 | 0.184 | 0.165 | 0.501 | 0.413 | 0.497 | 0.437 | 0.453 | – | 0.168 |
| NCI-H838 | 1.07 | 1.07 | 1.12 | 1.07 | 0.31 | 0.31 | 0.32 | 0.281 | 0.241 | 0.233 | 0.259 | 0.274 | 0.246 | 0.976 | 1.02 | 0.901 | 0.822 | 0.966 | 1.09 | 0.3 |
| CAL-12T | 0.82 | 0.828 | 0.805 | 0.832 | 0.413 | 0.388 | 0.436 | 0.344 | 1.2 | 1.39 | 1.15 | 1.34 | 1.04 | 0.646 | 0.599 | 0.492 | 0.647 | 0.667 | 0.887 | 0.263 |
